The numbers were not newly measured in patent publication US20250074935A1, “HETERODIMER COMPOSITIONS AND METHODS FOR THE TREATMENT OF OCULAR DISORDERS” (Ripple Therapeutics Corporation, priority 2020, published 2025), which cites them from elsewhere.

The conditions of the series: given once a day.

As to `CC(C)OC(=O)CCC/C=C\C[C@@H]1[C@@H](CC[C@@H](O)CCc2ccccc2)[C@H](O)C[C@@H]1O` [latanoprost], the “mean IOP lowering” value is reported as “about 35%”.
